# Measurements reported in US12583861B2, “Derivatives of imidazo[4,5-d]pyridazine, their preparation and their therapeutic application” (SANOFI, priority 2021, dated 2026).
# Key:
# Type in all cases: cell-based
# human TLR7 = molecular target: T1, human TLR7 (Homo sapiens, UniProt Q9NYK1); experiment: HEK-Blue hTLR7 reporter cell assay (SEAP, NF-kB/AP-1) for stimulation of human TLR7; details: HEK-Blue hTLR7 cells, 24 h incubation, SEAP readout; read-out: TLR7_EC50
# T1 construct: host or cells: HEK293 (HEK-Blue hTLR7)
# T1 sequence (Q9NYK1 27-1049): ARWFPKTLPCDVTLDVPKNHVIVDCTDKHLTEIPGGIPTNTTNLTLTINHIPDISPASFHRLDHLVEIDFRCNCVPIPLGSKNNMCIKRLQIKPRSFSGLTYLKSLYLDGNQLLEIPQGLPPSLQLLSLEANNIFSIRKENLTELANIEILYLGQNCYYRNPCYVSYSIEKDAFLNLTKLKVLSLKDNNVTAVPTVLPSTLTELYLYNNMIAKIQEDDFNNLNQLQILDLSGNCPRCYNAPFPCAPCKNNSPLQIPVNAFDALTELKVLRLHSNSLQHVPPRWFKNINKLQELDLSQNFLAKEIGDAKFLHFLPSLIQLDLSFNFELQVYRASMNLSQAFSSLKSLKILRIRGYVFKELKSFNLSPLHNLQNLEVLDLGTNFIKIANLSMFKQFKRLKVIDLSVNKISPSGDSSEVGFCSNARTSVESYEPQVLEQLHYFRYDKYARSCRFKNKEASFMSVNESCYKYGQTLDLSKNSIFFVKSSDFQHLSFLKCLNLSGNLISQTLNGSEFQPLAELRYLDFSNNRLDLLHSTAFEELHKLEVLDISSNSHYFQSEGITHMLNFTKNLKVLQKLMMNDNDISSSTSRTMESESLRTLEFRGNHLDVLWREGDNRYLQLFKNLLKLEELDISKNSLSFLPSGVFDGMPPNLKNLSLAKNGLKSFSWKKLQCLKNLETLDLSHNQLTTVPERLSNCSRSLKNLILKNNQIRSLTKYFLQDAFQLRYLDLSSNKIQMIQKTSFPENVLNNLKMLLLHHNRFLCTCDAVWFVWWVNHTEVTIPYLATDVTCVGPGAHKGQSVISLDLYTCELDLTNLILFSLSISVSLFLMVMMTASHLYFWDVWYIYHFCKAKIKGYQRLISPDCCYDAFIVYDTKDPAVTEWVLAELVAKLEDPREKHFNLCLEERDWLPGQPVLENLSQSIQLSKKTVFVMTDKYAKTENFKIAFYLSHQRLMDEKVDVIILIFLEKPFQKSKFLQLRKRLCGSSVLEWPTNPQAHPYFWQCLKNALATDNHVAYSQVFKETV
# Summary of the method: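 HEK293 cells expressing hTLR7 with NF-κB/AP-1-driven SEAP reporter, seeded 3.10E4 cells/well, pre-incubated 18–24 h, then exposed to 3-fold compound dilutions (0.01–20 μM) for 24 h at 37 °C. Supernatant SEAP read with QUANTI-Blue; EC50 as concentration giving 50% activation.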
# IFN-α2a = IFN-α2a cytokine activation in human PBMC (MSD assay); details: Homo sapiens, PBMC, 24 h
# Experimental: (§1) The other below tests involving measuring the in vitro activity of some compounds of the disclosure on cytokines IFN-α2a, IL-6, IL29 and TNF-α were carried out using human PBMC (PBMCs).
# (§2) The activity described below, with respect to TLR7, TLR8, IFN-α2a, IL-6, IL29 and TNF-α, is given by the half maximal effective concentration (EC50), which corresponds to the concentration required to obtain a 50% of the activation. The lower the EC50, the less the concentration of the compound is required to produce 50% of maximum activation and the higher the potency.
# (§3) In Vitro Assay to Determine IFN-α2a, IL-6, IL29 and TNF-α Cytokine Activation:
# (§4) Peripheral blood mononuclear cells were isolated by Ficoll density gradient centrifugation from peripheral blood samples obtained from healthy donors (EFS). Isolated PBMCs are washed twice with PBS and resuspended in RPMI-1640 medium supplement with 10% fetal bovine serum (FBS) at 5.10^5 cells/well in a 96-well plate. The cells were then incubated with the compounds to test at various doses (20 μM to 4.8.10-6 μM final) for 24 h at 37° C., 5% CO2. After 24 h treatment, the plates are centrifuged and the supernatant were collected and assayed for cytokines IFN-α2a, IL-6, IL29 and TNF-α using the Meso Scale Discovery (MSD) assay platform according to the manufacturer's instructions. Briefly, 25 μL of cell culture supernatants were incubated for 1 h at Room Temperature (RT) in custom Multi-Spot 96-well plates prior coated with capture antibodies. After washing, SULFO-TAG® labeled detection antibodies were added to each of the wells and incubated for 1 h RT before adding a read buffer.
# IL-6 = IL-6 cytokine activation in human PBMC (MSD assay); details: Homo sapiens, PBMC, 24 h, read-out: IL6 EC50
# Experimental: as §1, §2, §3, §4
# IL29 = IL29 cytokine activation in human PBMC (MSD assay); details: Homo sapiens, PBMC, 24 h
# Experimental: as §1, §2, §3, §4
# TNF-α = TNF-α cytokine activation in human PBMC (MSD assay); details: Homo sapiens, PBMC, 24 h
# Experimental: as §1, §2, §3, §4
SMILES,EC50 (human TLR7) [nM],EC50 (IFN-α2a) [nM],EC50 (IL-6) [nM],EC50 (IL29) [nM],EC50 (TNF-α) [nM]
"CCCCc1nc2c(N)nnc(OC(C)C)c2n1Cc1ccc(CO)cc1 [Compound 35, (4-((4-amino-2-butyl-7-isopropoxy-1H-imidazo[4,5-d]pyridazin-1-yl)methyl)phenyl)methanol]",106,21,40,15,343
"CCCCc1nc2c(N)nnc(OC3CCCC3)c2n1Cc1ccc(OC)cc1 [Compound 9, 2-butyl-7-(cyclopentyloxy)-1-(4-methoxybenzyl)-1H-imidazo[4,5-d]pyridazin-4-amine]",135,16,149,15,380
